Measured values reported in patent US20190327975A1, “AN ANTIMICROBIAL COMPOSITION” (Conopco, Inc., d/b/a UNILEVER, priority 2016, published 2019).

From the text: More particularly, silver ion solubility [Ag+], a value given in mol/L may be calculated using the formula: […]

Silver Ion Solubility [Ag+]: 13 µM
SMILES: [Cl][Ag] [Silver chloride]
